Where two headings read alike, the source gives them in different places.
Tests used:
Human RPE cells = test: Formation of lipofuscin (auto-fluorescence) in RPE cells with tyrosinase inhibited by PTU; type: cell-based
Description: Human retinal pigment epithelium cells were isolated 2 hours post mortem from eyes of organ donors by incubation in 0.2% trypsin solution with 0.5 mM EDTA (if not indicated differently the reagents are from Sigma, Deisenhofen, Germany) for 30 minutes. The cells were centrifuged and cultivated in 24-well-plates (Nunc, Mainz, Germany) in Dulbeccos modified Eagle Medium with 15% foetal calf serum, 50 μg/ml gentamycin and 2.5 μg/ml amphotericin. The cells remain in primary culture (P0) for 3 weeks until confluence. Subsequent passaging was performed by trypsination of the cells in the respective time intervals. For the feeding with membranes of visual cells, cells originating from 3 different donors (passage 3, 6 and 16) were used. […]
The cells in group 1+2 were overlaid with about 2×10^6 outer segments of rods. […] After this, the cells were looked at under the fluorescence microscope (Axiovert, Zeiss, Oberkochem, Germany) with filters specific for the auto-fluorescence of the lipofuscein (excitation 360 nm, emission 540 nm, Feuerbacher Analysentechnik, Tübingen, Germany) and were photographed with a digital camera and saved using Openlab Software (Improvision, UK).

[1] = for zinc concentration of the chorioidea-RPE-complex: 24 hours after 40 mg/kg ZnCl2 intraperitoneally
Description: Two albino (Wistar) rats and two pigmented (Long Evans) rats were injected intraperitoneally with 40 mg/kg body weight ZnCl2. After 24 hours the chorioidea-RPE-complex was isolated from retina and sclera. Respective samples from untreated animals served as controls. The samples were weight directly into leak-proof PFA vessels (Savillex) (Microbalance Sartorius MC21S) and cracked by using ultrasound homogenisation for 24 hours at 30° C. with HNO3—H2O2 (suprapur grade reagents; Merck). After careful evaporation, the remains were solved in 2% HNO3 for 5 hours at 50° C. This solution was subsequently transferred to a 10 ml volumetric flask. The final clear solution contained 10 ng rhodamin (Rh)/ml and was refilled with 2% HNO3. The detection of zinc was performed by inductively coupled plasma mass spectrometry (ICP-MS, ELAN 6000 Perkin-Elmer/Sciex) and by using Rh as internal standard and a calibration with chemical reagents having the highest purity grade.

mRNA for catalase = test: Catalase mRNA expression in the chorioidea-RPE-complex after zinc injection (real time RT-PCR); type: in vivo, rat
Description: After 6 and 24 hours the chorioidea-RPE-complex was isolated from the retina and sclera. The amount of catalase mRNA expression in the chorioidea-RPE-complex was quantified by real time RT-PCR with the SYBR Green I reaction system using an iCycler (Bio-Rad Laboratories, Hercules, Calif.). PCR primer (catalase: upper primer: TAGCCAGAAGAGAAACCCACAAACT (SEQ ID NO:1) and lower primer: TCCCTCGGTCGCTGAACAAGA (SEQ ID NO:2); GAPDH: upper primer: AACTTTGTGAAGCTCATTTCCTGGTAT (SEQ ID NO:3) and lower primer: CCT TGC TGG GCT GGG TGG T (SEQ ID NO:4)) were selected using the primer analysis software OLIGO®4.1 (National Biosciences, Plymoth, Minn., USA) that the primer specific melting temperature was between 58 and 60° C. […] The quantification data were calculated using the iCycler iQ System Software (Bio-Rad Laboratories, Hercules, Calif.). After subtraction of the PCR base line by the software, the linear logarithmic portion of the fluorescence was plotted versus the number of cycles to determine the cycle number (threshold cycle, CT) at which the threshold fluorescence for catalase and GAPDH as a reference was exceeded. Since the amplification effectivity of target and reference gene was approximately the same (delta CT<0.15) the comparative CT method was used for the quantification of the catalase in comparison GAPDH.

[2] = test system: human amelanotic retinal pigment epithelium cells ARPE-19; test: Survival of retinal pigment epithelium cells after lethal UVA radiation; type: cell-based; conditions: without melanin
Description: 30.000 human amelanotic retinal pigment epithelium cells ARPE-19 (American Type culture Collections, Manassas, Va., USA) were cultivated in a mixture of DMEM and F12 Medium (PAA Laboratories, Linz, Austria) with 10% foetal calf serum, gentamycin and amphotericin and were incubated with 1 mg/ml melanin from squids (Sepia officinalis, Sigma). After 4 hours, the non-phagocytosed melanin was thoroughly washed away. After 24 hours the artificially pigmented cells were incubated with 100 or 200 μmol ZnCl2 for 2 hours. Three days later, the cells were irradiated using a HRL, 125 W, lamp (Radium, Germany) for 1 hour. The UVA light portion was 18 mW/cm^2 at the surface of the cell culture liquid and was measured using a RM-12 UV radiometer (Dr. Gröbel, UV Elektronik, Ettlingen, Germany). Cells without melanin and zinc treatment with and without irradiation served as controls. After 2 further days, the number of surviving cells was counted in a Thoma-chamber.
In the following table the mean values of surviving cells from 3 independent experiments are indicated. The number of surviving cells after irradiation without melanin and/or zinc treatment was statistically compared with the number of surviving cells with treatment. That is were the p-value results from. […] The number of surviving cells war increased by the factor 7.4 in comparison to untreated cells.

Row | Compound | auto-fluorescence specific for lipofuscin (Human RPE cells; group 1: 1 mM PTU, fed with membranes of visual cells on 15 successive days) | auto-fluorescence specific for lipofuscin (Human RPE cells; group 3: 1 mM PTU, not fed) | final zinc concentration in pigmented rats relative to treated albinos (times higher) ([1]; after injection of zinc, 24 hours) | zinc concentration of the chorioidea-RPE-complex ([1]; albino (Wistar) rats) [µg/g] | zinc concentration of the chorioidea-RPE-complex ([1]; pigmented (Long Evans) rats) [µg/g] | increase of zinc concentration (factor) versus untreated ([1]; pigmented rats, 24 hours after injection of zinc) | amount of mRNA for catalase (mRNA for catalase; 24 hours after 40 mg/kg ZnCl2 i.p.) | increase of mRNA for catalase (factor) (mRNA for catalase; six hours after 40 mg/kg ZnCl2 i.p., albino and pigmented rats compared) | number of surviving cells ([2]; with irradiation (UVA 18 mW/cm^2, 1 hour), 100 μmol Zn) | number of surviving cells ([2]; with irradiation, 200 μmol Zn)
1 | NC(=S)Nc1ccccc1 [PTU, phenylthiourea] | intensive, golden auto-fluorescence specific for lipofuscin | no auto-fluorescence | – | – | – | – | – | – | – | –
2 | [Cl-].[Cl-].[Zn+2] [zinc, ZnCl2] | – | – | 19 | 6.5 | 125 | 1.6 | again as high as without zinc injection | 12 | 33333 ± 11547 | 41666 ± 16072

From patent US7488749B2, “Therapy of diseases of the eye, the inner ear and the central nervous system” (Cevec Pharmaceuticals GmbH, priority 2002, dated 2009)
